This is an account of results in patent EP0745595A1, “3-(3-Aryloxyphenyl)-1-(substituted methyl)-s-triazine-2,4,6-oxo or thiotrione herbicidal agents” (American Cyanamid Company, priority 1995, dated 1996).

Common to all, as to assay type: in vivo
Assay [1] concerns AMBROSIA ARTEMISIIFOLIA, L. Kind of assay: Preemergence herbicidal evaluation, AMBEL (Ragweed, Common). The conditions noted are these: for AMBEL herbicidal rating: rated four to five weeks after treatment. Put shortly: (§1)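 Rated 0-9 by visual comparison with control (stand, vigor, malformation, size, chlorosis, overall appearance) four to five weeks after preemergence soil spray. Dose equivalent to about 0.125 to 0.50 kg per hectare, applied in aqueous acetone to freshly seeded cups kept in greenhouse.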

Assay [2] has as its system SETARIA VIRIDIS, (L) BEAU. Description: Preemergence herbicidal evaluation, SETVI (Foxtail, Green). The conditions noted are these: for SETVI herbicidal rating: rated four to five weeks after treatment. In outline: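 Preemergence herbicidal activity against green foxtail was assessed by planting seed mixed with potting soil over about one inch of soil in individual pint cups. After treatment the cups stayed in a greenhouse under standard care. At four to five weeks, each cup was scored 0-9 relative to a control based on stand, vigor, malformation, size, chlorosis and overall appearance.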

Assay [3] has as its system ABUTILON THEOPHRASTI, MEDIC. Description: Preemergence herbicidal evaluation, ABUTH (Velvetleaf). The conditions noted are these: for ABUTH herbicidal rating: rated four to five weeks after treatment. Put shortly:
as §1

Assay [4] has as its system TRITICUM AESTIVUM, CV. APOLLO. Kind of assay: Preemergence herbicidal evaluation, TRZAWO (Wheat, Winter, CV. APOLLO). The conditions noted are these: for TRZAWO herbicidal rating: rated four to five weeks after treatment. Put shortly:
as §1

The next assay concerns IPOMOEA SPP. Kind of assay: Preemergence herbicidal evaluation, IPOSS (Morningglory spp.). The conditions noted are these: for IPOSS herbicidal rating: rated four to five weeks after treatment. Put shortly:
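This preemergence greenhouse test scored herbicidal effect on morningglory planted in pint cups, with seed mixed into potting soil and placed over about one inch of soil. After treatment the cups were watered and kept under conventional care. At four to five weeks, plant stand, vigor, malformation, size, chlorosis and overall appearance were compared with a control and rated 0-9.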

The test system of assay [5] is ECHINOCHLOA CRUS-GALLI, (L) BEAU. Kind of assay: Preemergence herbicidal evaluation, ECHCG (Barnyardgrass). The conditions noted are these: for ECHCG herbicidal rating: rated four to five weeks after treatment. Put shortly: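 In this preemergence herbicide test, cups holding seeds of ECHCG sown in potting soil over roughly one inch of soil were treated and then grown under conventional greenhouse care. Tests were ended four to five weeks after treatment, and injury was scored 0-9 from stand, vigor, malformation, size, chlorosis and overall appearance relative to a control.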

On to `Cn1c(=O)[nH]c(=O)n(-c2cc(Oc3c(F)cc(C(F)(F)F)cc3Cl)ccc2F)c1=O` [C, reference compound], for which the AMBEL in assay [1] (Rate 0.031 kg/ha), in assay [1] (Rate 0.063 kg/ha), in assay [1] (Rate 0.125 kg/ha) and in assay [1] (Rate 0.250 kg/ha) was 0.0 each time.
In turn, `COC(=O)Cn1c(=O)n(C)c(=O)n(-c2cc(Oc3ccccn3)ccc2[N+](=O)[O-])c1=O` [Compound 38, Methyl tetrahydro-3-methyl-5-[2-nitro-5-(2-pyridyloxy)phenyl]-2,4,6-trioxo-s-triazine-1(2H)-acetate] showed an SETVI herbicidal rating in assay [2] (Rate 0.500 kg/ha) of 0.0. The molecule further yielded an AMBEL herbicidal rating in assay [1] (Rate 0.500 kg/ha) of 0.0. Besides, in assay [3] (Rate 0.500 kg/ha), the ABUTH herbicidal rating is given as 0.0. For the same molecule, in assay [4] (Rate 0.500 kg/ha), the TRZAWO herbicidal rating was 1.0. The IPOSS herbicidal rating in the assay with IPOMOEA SPP. (Rate 0.500 kg/ha) was found to be 0.0. Besides, the ECHCG herbicidal rating in assay [5] (Rate 0.500 kg/ha) stood at 0.0.
Regarding “Methyl 3-{2-[(2-chloro-α,α,α,-trifluoro-p-tolyl)oxy]phenyl}tetrahydro-5-methyl-2,4,6-trioxo-s-triazine-1(2H)-acetate [Compound 28]”, the SETVI in assay [2] (Rate 0.125 kg/ha) stood at 0.0; in assay [2] (Rate 0.250 kg/ha), 2.0; in assay [2] (Rate 0.500 kg/ha) it was 3.0; in assay [2] (Rate 1.000 kg/ha), 6.0. Further, the SETVI herbicidal rating in assay [2] (Rate 0.125 kg/ha) was found to be 0.0; in assay [2] (Rate 0.250 kg/ha), 2.0; in assay [2] (Rate 0.500 kg/ha), 3.0. In addition, the AMBEL in assay [1] (Rate 0.125 kg/ha) was determined as 5.0; in assay [1] (Rate 0.250 kg/ha), 5.0; in assay [1] (Rate 0.500 kg/ha) it was 7.0; in assay [1] (Rate 1.000 kg/ha), 5.0. Further, the AMBEL herbicidal rating in assay [1] (Rate 0.125 kg/ha) stood at 5.0; in assay [1] (Rate 0.250 kg/ha), 5.0; in assay [1] (Rate 0.500 kg/ha), 7.0. The ABUTH in assay [3] (Rate 0.125 kg/ha) was found to be 0.0; in assay [3] (Rate 0.250 kg/ha), 3.0; in assay [3] (Rate 0.500 kg/ha), 4.0; in assay [3] (Rate 1.000 kg/ha), 7.0. For the same molecule, the ABUTH herbicidal rating in assay [3] (Rate 0.125 kg/ha) is recorded as 0.0; in assay [3] (Rate 0.250 kg/ha), 3.0; in assay [3] (Rate 0.500 kg/ha), 4.0. In addition, the TRZAWO in assay [4] (Rate 0.125 kg/ha) is on record as 0.0; in assay [4] (Rate 0.250 kg/ha) it was 0.0; in assay [4] (Rate 0.500 kg/ha) it was 1.0; in assay [4] (Rate 1.000 kg/ha), 1.0. The TRZAWO herbicidal rating in assay [4] (Rate 0.125 kg/ha) is recorded as 0.0; in assay [4] (Rate 0.250 kg/ha), 0.0; in assay [4] (Rate 0.500 kg/ha), 1.0. Also, the IPOSS is given as 2.0 in the assay with IPOMOEA SPP. (Rate 0.125 kg/ha), 3.0 with IPOMOEA SPP. (Rate 0.250 kg/ha), 6.0 with IPOMOEA SPP. (Rate 0.500 kg/ha) and 7.0 in the assay with IPOMOEA SPP. (Rate 1.000 kg/ha). The IPOSS herbicidal rating is on record as 2.0 in the assay on IPOMOEA SPP. (Rate 0.125 kg/ha), 3.0 in the assay on IPOMOEA SPP. (Rate 0.250 kg/ha) and 6.0 in the assay on IPOMOEA SPP. (Rate 0.500 kg/ha). Moreover, the ECHCG stood at 0.0 in assay [5] (Rate 0.125 kg/ha), 2.0 in assay [5] (Rate 0.250 kg/ha), 3.0 in assay [5] (Rate 0.500 kg/ha) and 6.0 in assay [5] (Rate 1.000 kg/ha). Besides, the results for the ECHCG herbicidal rating in assay [5] (Rate 0.125 kg/ha), in assay [5] (Rate 0.250 kg/ha) and in assay [5] (Rate 0.500 kg/ha) were 0.0, 2.0 and 3.0, respectively.
For `COC(=O)Cn1c(=O)n(C)c(=O)n(-c2cc(Oc3cc(Cl)cc(Cl)c3)ccc2[N+](=O)[O-])c1=O` [Compound 35, Methyl 3-[5-(3,5-dichlorophenoxy)-2-nitrophenyl]tetrahydro-5-methyl-2,4,6-trioxo-s-triazine-1(2H)-acetate], the SETVI herbicidal rating in assay [2] (Rate 0.500 kg/ha) turned out to be 0.0. Besides, the AMBEL herbicidal rating in assay [1] (Rate 0.500 kg/ha) was 0.0. In assay [3] (Rate 0.500 kg/ha), this molecule displayed an ABUTH herbicidal rating of 0.0. This molecule also came in with a TRZAWO herbicidal rating in assay [4] (Rate 0.500 kg/ha) of 0.0. The same molecule had an IPOSS herbicidal rating in the assay with IPOMOEA SPP. (Rate 0.500 kg/ha) of 0.0. Further, in assay [5] (Rate 0.500 kg/ha), the ECHCG herbicidal rating worked out at 0.0.
Regarding `COC(=O)Cn1c(=O)n(C)c(=O)n(-c2cc(Oc3ccc(SC)cc3Cl)ccc2[N+](=O)[O-])c1=O` [Compound 34, Methyl 3-{5-[2-chloro-4-(methylthio)-phenoxy]-2-nitrophenyl}tetrahydro-5-methyl-2,4,6-trioxo-s-triazine-1(2H)-acetate], the SETVI herbicidal rating in assay [2] (Rate 0.125 kg/ha), in assay [2] (Rate 0.250 kg/ha) and in assay [2] (Rate 0.500 kg/ha) was 0.0 each time. Moreover, the AMBEL herbicidal rating in assay [1] (Rate 0.125 kg/ha), in assay [1] (Rate 0.250 kg/ha) and in assay [1] (Rate 0.500 kg/ha) was 0.0 throughout. The ABUTH herbicidal rating in assay [3] (Rate 0.125 kg/ha), in assay [3] (Rate 0.250 kg/ha) and in assay [3] (Rate 0.500 kg/ha) was 0.0 in each case. Moreover, the TRZAWO herbicidal rating in assay [4] (Rate 0.125 kg/ha), in assay [4] (Rate 0.250 kg/ha) and in assay [4] (Rate 0.500 kg/ha) was 0.0 each time. The IPOSS herbicidal rating with IPOMOEA SPP. (Rate 0.125 kg/ha), with IPOMOEA SPP. (Rate 0.250 kg/ha) and with IPOMOEA SPP. (Rate 0.500 kg/ha) was 0.0 throughout. Besides, the ECHCG herbicidal rating in assay [5] (Rate 0.125 kg/ha), in assay [5] (Rate 0.250 kg/ha) and in assay [5] (Rate 0.500 kg/ha) was 0.0 throughout.
